Laboratory results reported in paper PMC10590756, “Glutarate regulates T cell metabolism and anti-tumour immunity” (Nature Metabolism, 2023).

System: H3 lysine methylation in human CD8^+ T cells
Experiment: Histone 3 methylation western blot
Format: cell-based
Conditions: DEG 500 µM, 7 days
Method: Histones were extracted with the Histone Extraction Kit (catalogue no. ab113476, Abcam). Proteins were separated by SDS–PAGE and transferred to polyvinylidene fluoride (PVDF) membranes. Total protein stain was obtained using non-stain protein labelling reagent (catalogue no. A44448, Thermo Fisher Scientific). Membranes were then blocked in 5% milk prepared in PBS plus 0.05% Tween-20, incubated with primary antibodies overnight at 4 °C and horseradish peroxidase (HRP)-conjugated secondary antibodies (catalogue nos. HAF008 and HAF007, R&D Systems) for 1 h the next day. After enhanced chemiluminescence (ECL) exposure (catalogue no. GERPN2106, Sigma-Aldrich), membranes were imaged using an iBrightCL1000 (Thermo Fisher Scientific). […] 13998); and anti-H3k27ac (catalogue no.

CCOC(=O)CCCC(=O)OCC [DEG, Diethyl glutarate]
increased: dimethylation of H3K9 | trimethylation of H3K9 | trimethylation of H3K27
